One data set is described as follows: solubility. Format: physicochemical.
Data set [1] concerns Biolaser-induced thrombosis / platelet aggregation in rabbit ear. The experiment in a line: in vivo inhibition of biolaser-induced platelet aggregation in the rabbit ear (Biolaser Model). Particulars: for inhibition in vivo at 0.1 mg/kg: Oryctolagus cuniculus, Platelet, po, 0.1 mg/kg orally, 2 hours. Also on record: species or system rabbit (English, half-lop). Here is the method:
Transparent ear chambers were chronically implanted in adult, English, half-lop rabbits. The animals were conditioned to lie quietly in a supine position. Localized microvascular injury was induced by focusing a single pulse ruby laser beam through a microscope into the lumen of a vessel […] in diameter. This evoked the formation of a small thrombus consisting of platelets accumulated around a core of one or two damaged red cells. Thrombi areas were determined using computerized planimetry. The mean thrombus area (μM^2) obtained for 10 trials in each rabbit served as the control value. Subsequently, the test compound was administered orally and 2 hours later a second series of laser-induced thrombi trials were performed. Drug activity was evaluated by comparing pre-and post-dose mean thrombus areas. Activity determined at other time points beyond 2 hours establish duration of action.

The target of data set [2] is T1, cyclic AMP phosphodiesterase (PDE) enzyme obtained from human platelets (Homo sapiens, UniProt Q14432).
T1 construct: phosphodiesterase (PDE) enzyme obtained from human platelets; from tissue; host or cells: human platelets
The experiment in a line: inhibition of cyclic AMP phosphodiesterase. Particulars: human platelet PDE. The data set is classed as biochemical. Here is the method: This assay is carried out essentially as described by Thompson, et al., Methods in Enzymology, 38, […] (1974). Briefly, tritium labeled cyclic adenosine monophosphate (cAMP) is incubated with a phosphodiesterase (PDE) enzyme obtained from human platelets which converts a portion of the cAMP to 5'AMP in culture tubes. This reaction is terminated by submerging the tubes in a boiling water bath after which they are placed on ice and an aliquot of snake venom is added to each tube. This, during a second incubation, converts the 5'AMP to adenosine. Ion exchange resin is added to bind the remaining cyclic AMP. The tubes are centrifuged to sediment the resin and a portion of the clear supernatent (which contains radioactive adenosine) is counted in a liquid scintillation counter. The cAMP phosphodiesterase inhibition activity of a test agent is determined by pre-incubating the PDE enzyme preparation with the test agent. Dose response values are obtained and activity of the test agent reported as the molar (M) concentration of the test agent inhibition 50% of the PDE activity (IC50 s).

A further data set concerns ferrets. The data set can be described thus: in vivo inotropic activity in anesthetized ferrets (hemodynamic parameters and right ventricular contractile force). Also on record: species or system ferret. The note with it: for change in vivo at 3 mg/kg: Mustela putorius, intraduodenal, 1 h, 3 mg/kg intraduodenally, monitored 60 minutes. Here is the method: This test is […] out in ferrets as follows. Fasted anesthetized ferrets are instrumented to study hemodynamic parameters as well as right ventricular contractile force (RVCF) using a Walton-Brodie open strain gauge arch. Drugs are administered intraduodenally as solutions in DMSO (1 mL or less) and effects on myocardial contractile force and other parameters are monitored for 60 minutes after dosing. Changes in contractile force in response to drug treatment are expressed in terms of percent change from predose control.

In data set [3] the test system is ADP-induced platelet aggregation. The experiment in a line: in vitro inhibition of ADP-induced platelet aggregation (aggregometer method of Born, platelet rich plasma). Format: cell-based. Particulars: human platelet rich plasma; ADP 2.5 mcg/ml; as the dihydrochloride salt; read-out: EC50 versus ADP (inhibition of ADP-induced platelet aggregation). Here is the method: The aggregometer method of Born^1, as modified by Mustard, et al.^2 was used to assess the in vitro activity of the various compounds as to inhibition of adenosine diphosphate (ADP) and collagen-induced platelet aggregation. Platelet rich plasma (PRP) was separated by centrifugation from citrated (3.8 percent) human blood. ADP in final concentration of 2.5 mcg/ml or 0.05 ml of a collagen suspension prepared according to the method described by Evans, et al.^3 was used to induce aggregation. The various Evans, et al. compounds tested were dissolved in dimethylsulfoxide (DMSO) so that 5 mcl added to the platelet rich plasma would yield the desired test concentration. Vehicle control trials were done and compared with aggregation induced in platelet rich plasma containing various concentrations of the test compounds. Dose response curves were thus obtained and Effective Concentration (EC50) values calculated.

[4] abbreviates: Table I, read-out: cAMP PDE IC50 (m).
Where [5] appears, read: change from predose control, read-out: Ferret, Maximum % Change, VCF (ventricular contractile force).
[6] abbreviates: read-out: Ferret, Maximum % Change, HR (heart rate).
Setting [7] is: read-out: Ferret, Maximum % Change, MAP (mean arterial blood pressure).

Where two headings read alike, the source gives them in different places.

T1 sequence (Q14432 whole entry): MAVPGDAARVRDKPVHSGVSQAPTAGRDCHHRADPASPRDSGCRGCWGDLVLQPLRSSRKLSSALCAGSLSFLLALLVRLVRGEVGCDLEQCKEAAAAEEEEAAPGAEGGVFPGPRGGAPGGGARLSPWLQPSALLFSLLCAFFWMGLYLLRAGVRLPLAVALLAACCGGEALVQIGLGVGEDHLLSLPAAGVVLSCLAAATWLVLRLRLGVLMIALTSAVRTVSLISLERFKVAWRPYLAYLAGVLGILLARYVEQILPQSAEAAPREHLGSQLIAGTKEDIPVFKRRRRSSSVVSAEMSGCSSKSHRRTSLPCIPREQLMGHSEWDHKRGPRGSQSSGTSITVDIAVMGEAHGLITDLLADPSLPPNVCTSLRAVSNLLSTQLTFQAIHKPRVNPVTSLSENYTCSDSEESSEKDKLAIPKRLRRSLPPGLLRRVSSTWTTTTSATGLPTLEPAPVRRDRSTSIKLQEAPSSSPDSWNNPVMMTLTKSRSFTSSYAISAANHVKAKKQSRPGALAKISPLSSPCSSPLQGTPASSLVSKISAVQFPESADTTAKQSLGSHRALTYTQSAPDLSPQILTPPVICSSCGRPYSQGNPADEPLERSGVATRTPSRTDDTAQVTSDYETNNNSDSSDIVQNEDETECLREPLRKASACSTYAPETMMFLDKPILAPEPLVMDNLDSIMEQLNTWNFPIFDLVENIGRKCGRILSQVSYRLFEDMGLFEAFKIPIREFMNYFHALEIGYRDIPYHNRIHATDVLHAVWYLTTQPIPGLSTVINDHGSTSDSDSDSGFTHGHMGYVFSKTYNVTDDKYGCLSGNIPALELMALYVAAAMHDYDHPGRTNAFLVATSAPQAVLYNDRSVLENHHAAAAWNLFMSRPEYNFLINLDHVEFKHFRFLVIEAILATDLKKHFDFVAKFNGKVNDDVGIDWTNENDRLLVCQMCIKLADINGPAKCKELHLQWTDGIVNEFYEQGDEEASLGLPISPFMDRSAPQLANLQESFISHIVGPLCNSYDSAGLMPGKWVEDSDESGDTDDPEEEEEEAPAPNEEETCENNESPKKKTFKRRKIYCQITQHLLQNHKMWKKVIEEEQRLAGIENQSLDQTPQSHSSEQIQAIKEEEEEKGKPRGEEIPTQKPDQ

The solubility is the dissolved amount per volume that the medium holds. `O=C(CCCOc1ccc2nc3[nH]c(=O)[nH]c3cc2c1)N1CCN(c2ccccc2)CC1` [1-[4-[(2,3-dihydro-2-oxo-1H-imidazo[4,5-b]-quinolin-7-yl)oxy]-1-oxobutyl]-4-phenylpiperazine, reference compound]: the solubility was less than 10 µg/mL in “solubility” (2.0n hcl, read-out: solubility in 2.0N HCl) and less than 10 µg/mL in the data set “solubility” (water, read-out: solubility in water). In addition, the “activity in Biolaser Model relative to Table I compounds” value in data set [1] (0.3 mg/kg body weight, compared with Table I compounds) is “markedly less active than Table I compounds”. In addition, the “inhibition in Biolaser Model” value in data set [1] (0.3 mg/kg body weight, rabbit) is 22%.
What is called IC50 is the concentration that gives 50% inhibition. As usually defined, the inhibition in vivo is the change of the read-out against control, counted positive when it falls. A low value points to a response near the control. Consider `O=C(CCCOc1ccc2nc3[nH]c(=O)[nH]c3cc2c1)N1CCN(Cc2ccccc2)CC1` [Example 11], for which the concentration for half-maximal inhibition (IC50) in data set [2] (setting [4]) came out at 0.7 nM. Also, the change in vivo at 3 mg/kg in the data set on ferrets (setting [5]) was 28%; with ferrets (setting [6]), 31%; in the data set with ferrets (setting [7]), -42%. In data set [1] (rabbit), this compound showed an inhibition in vivo at 0.1 mg/kg of 50%.
The matching figures for `O=C(CCCOc1ccc2nc3[nH]c(=O)[nH]c3cc2c1)N1CCN(Cc2ccc(F)cc2)CC1` [Example 13]: 2 nM, 32%, 21%, -11% and 46%.
The matching figures for `O=C(CCCOc1ccc2nc3[nH]c(=O)[nH]c3cc2c1)N1CCN(Cc2cccc(C(F)(F)F)c2)CC1` [Example 14, 1-[4-(2,3-Dihydro-2-oxo-1H-imidazo[4,5-b]quinolin-7-(yloxy)-1-oxobutyl]-4-[[3-trifluormethyl)phenyl-]methyl]piperazine]: 9 nM, 3%, 12%, -16% and 49%.
Taken in the same sequence, the figures for `COc1ccc(CN2CCN(C(=O)CCCOc3ccc4nc5[nH]c(=O)[nH]c5cc4c3)CC2)cc1` [Example 15] were 3 nM, 24%, 17%, -23% and 48%.
For the compound `O=C(CCCOc1ccc2nc3[nH]c(=O)[nH]c3cc2c1)N1CCN(Cc2cccs2)CC1` [Example 16, 1-[4-(2,3-Dihydro-2-oxo-1H-imidazo[4,5-b]quinolin-7-yloxy)-1-oxobutyl]-4-(2-thienylmethyl)piperazine], the IC50 in data set [2] (setting [4]) amounted to 0.7 nM. Further, the change in vivo at 3 mg/kg is 30% in the data set with ferrets (setting [5]), 16% in the data set on ferrets (setting [6]) and -27% in the data set on ferrets (setting [7]). Further, in data set [1] (rabbit), the inhibition in vivo at 0.1 mg/kg was 49%.
The matching figures for `O=C(CCCOc1ccc2nc3[nH]c(=O)[nH]c3cc2c1)N1CCN(c2ccccn2)CC1` [Example 19]: 5 nM, -8%, 12%, -15% and 47%.
By EC50 is commonly meant the concentration that produces a half-maximal response. Regarding `O=C(CCCOc1ccc2nc3[nH]c(=O)[nH]c3cc2c1)N1CCN(CC2CCCCC2)CC1` [Example 22, 1-(Cyclohexylmethyl)-4-[4-(2,3-dihydro-2-oxo-1H-imidazo[4,5-b]quinolin-7-yloxy)-1-oxybutyl]piperazine], the half-inhibitory concentration (IC50) in data set [2] (read-out: IC50, cAMP phosphodiesterase inhibition) was 0.4 nM. For the same compound, the change in vivo at 3 mg/kg in the data set with ferrets (setting [5]) was 27%; in the data set with ferrets (setting [6]), 29%; in the data set with ferrets (setting [7]) it was -15%. Further, the concentration for a half-maximal effect (EC50) in data set [3] turned out to be 910 nM. This compound also gave an inhibition in vivo at 0.1 mg/kg in data set [1] (rabbit) of 59%.
Consider `O=C(CCCOc1ccc2nc3[nH]c(=O)[nH]c3cc2c1)N1CCN(C2CCCCCC2)CC1` [Example 25, 1-Cycloheptanyl-4-[4-(2,3-dihydro-2-oxo-1H-imidazo[4,5-b]quinolin-7-yloxy)-1-oxobutyl]piperazine], for which, in data set [2] (setting [4]), the IC50 was found to be 0.9 nM. Moreover, the figures for the change in vivo at 3 mg/kg with ferrets (setting [5]), with ferrets (setting [6]) and with ferrets (setting [7]) were 26%, 17% and -12%, respectively. This compound also displayed an inhibition in vivo at 0.1 mg/kg in data set [1] (rabbit) of 49%.
`Cc1[nH]c(=O)c(C#N)cc1-c1ccncc1` [milrinone, reference compound]: in the data set on ferrets (3 mg/kg, ferret), the “increase in RVCF (right ventricular contractile force)” value was found to be 52%.
